Measured values from PMC3914206.

Key:
[1] = biological target: T1, panel of 442 kinases (Homo sapiens, UniProt Q6XUX3); assay type: binding; conditions: Compound Concentration 10 µM
T1 construct: purchased KINOMEscan
T1 sequence (Q6XUX3 1-929): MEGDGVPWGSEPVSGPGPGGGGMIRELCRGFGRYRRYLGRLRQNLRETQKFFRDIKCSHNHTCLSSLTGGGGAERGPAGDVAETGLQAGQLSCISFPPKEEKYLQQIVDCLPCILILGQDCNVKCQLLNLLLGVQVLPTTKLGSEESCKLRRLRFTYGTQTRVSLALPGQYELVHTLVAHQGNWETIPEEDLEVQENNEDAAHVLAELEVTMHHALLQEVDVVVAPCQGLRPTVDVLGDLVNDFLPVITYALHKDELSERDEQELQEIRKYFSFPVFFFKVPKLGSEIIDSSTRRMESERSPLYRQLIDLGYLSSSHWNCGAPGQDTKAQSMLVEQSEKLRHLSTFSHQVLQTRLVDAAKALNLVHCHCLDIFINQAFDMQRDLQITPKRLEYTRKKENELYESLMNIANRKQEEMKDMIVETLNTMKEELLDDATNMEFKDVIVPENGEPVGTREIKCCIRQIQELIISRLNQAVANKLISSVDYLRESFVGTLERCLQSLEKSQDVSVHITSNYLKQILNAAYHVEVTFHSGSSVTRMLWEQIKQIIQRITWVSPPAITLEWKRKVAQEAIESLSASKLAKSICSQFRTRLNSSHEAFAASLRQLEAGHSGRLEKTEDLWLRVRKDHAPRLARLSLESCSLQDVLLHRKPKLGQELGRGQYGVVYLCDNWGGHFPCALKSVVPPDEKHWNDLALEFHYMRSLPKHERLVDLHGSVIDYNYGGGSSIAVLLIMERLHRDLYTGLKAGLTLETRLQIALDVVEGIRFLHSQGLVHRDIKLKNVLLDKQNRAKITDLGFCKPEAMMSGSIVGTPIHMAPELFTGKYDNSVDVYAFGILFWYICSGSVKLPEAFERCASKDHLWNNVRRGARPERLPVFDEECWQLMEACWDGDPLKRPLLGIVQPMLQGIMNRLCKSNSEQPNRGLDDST
From the text: (§1) We assessed the selectivity of members of this scaffold using the KINOMEscan methodology across a near comprehensive panel of 442 kinases [[18,27]].

[2] = biological target: T2, panel of 442 kinases (Homo sapiens, UniProt Q8TBX8); assay type: binding; conditions: Compound Concentration 10 µM
T2 construct: purchased KINOMEscan
T2 sequence (Q8TBX8 1-421): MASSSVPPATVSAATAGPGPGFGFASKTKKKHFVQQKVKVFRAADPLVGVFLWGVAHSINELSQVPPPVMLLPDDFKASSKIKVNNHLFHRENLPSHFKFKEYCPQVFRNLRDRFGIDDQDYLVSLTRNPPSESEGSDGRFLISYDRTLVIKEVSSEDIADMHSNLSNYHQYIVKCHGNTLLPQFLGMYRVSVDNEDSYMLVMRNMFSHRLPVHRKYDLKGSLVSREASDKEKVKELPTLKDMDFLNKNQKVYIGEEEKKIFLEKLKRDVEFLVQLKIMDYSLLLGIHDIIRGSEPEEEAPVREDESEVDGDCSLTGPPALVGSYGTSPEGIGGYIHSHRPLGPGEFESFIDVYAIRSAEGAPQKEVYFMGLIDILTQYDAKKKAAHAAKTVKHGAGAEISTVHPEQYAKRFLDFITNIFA
From the text: as §1

SMILES | KINOMEscan: RIPK5 [1] | KINOMEscan: PIP5K2C [2]
COc1cc(C(=O)N2CCC(N3CCN(C)CC3)CC2)ccc1Nc1ncc2c(n1)N(C)c1ccccc1C(=O)N2C [15 (LRRK2-IN-1)] | 16 | 40
COc1cc(C(=O)N2CCC(N3CCN(C)CC3)CC2)ccc1Nc1ncc2c(n1)N1CCc3cccc(c31)C(=O)N2C [Compound 24] | 24 | 
COc1cc(C(=O)N2CCC(N3CCN(C)CC3)CC2)ccc1Nc1ncc2c(n1)N(C1CCCC1)c1ccccc1C(=O)N2C [Compound 25, 11-cyclopentyl-2-((2-methoxy-4-(4-(4-methylpiperazin-1-yl)piperidine-1-carbonyl)phenyl)amino)-5-methyl-5H-benzo[e]pyrimido[5,4-b][1,4]diazepin-6(11H)-one] | 4.9 | 96
CCOc1cc(C(=O)N2CCC(N3CCN(C)CC3)CC2)ccc1Nc1ncc2c(n1)N(C1CCCC1)c1ccccc1C(=O)N2C [Compound 26] | 16 | 93
